Tests used:
[1] = Serum lipids after intraperitoneal administration (Table III); assay type: in vivo, rat; details: i.p. 0.1 mmoles/kg
Method: (§1) Rats are prepared by fasting 48 hours and refeeding a 1% corn oil 70% glucose diet for several days (5-15). On the experimental day, rats are dosed 30 or 60 minutes before the 3 hour meal by oral intubation, or 60 minutes after the end of the 3 hour meal by intraperitoneal injection. (The dose concentrated is a mmoles/kg/5-10 ml H2 O or 1% gum arabic depending on the solubility of the compound.) Rats are sacrificed by decapitation after a 30 minute pulse consisting of: 1mCi^3 H2 O,5 μCi[U-^14 C]alanine, 12.3 mg. alanine, and 30.6 mg α-ketoglutaric acid in […], given at the end of the 3 hour meal by i.v. injection into the tail vein. Blood was collected, allowed to clot and the serum analyzed for triglyceride and cholesterol levels. The livers are quickly excised, saponified, and acidified (only for determining the rate of lipogenesis) and extracted with hexane. At this stage the lipids are either counted (to determine the rate of lipogenesis) or precipitated with digitonin, washed, and counted (to determine the rate of cholesterogenesis). The conversion of ^3 H2 O and [^14 C]alanine into fatty acids or sterols is determined in a PDS/3, Mark II liquid scintillation counting system. Data are expressed as moles ^3 H2 O nmoles converted into fatty acids and cholesterol per g liver per 30 minutes. […]
(§2) sacrificed and rates of synthesis determined.

[2] = test system: Cholesterol Synthesis (liver); experiment: In vivo cholesterol synthesis in rat liver after oral administration (Table V); details: for Cholesterol Synthesis, 3H2O converted: control 1.35 ± 0.04; for Cholesterol Synthesis, [14C]alanine converted: control 33.0 ± 3.1
Method: (§3) Rats are prepared by fasting 48 hours and refeeding a 1% corn oil 70% glucose diet for several days (5-15). On the experimental day, rats are dosed 30 or 60 minutes before the 3 hour meal by oral intubation, or 60 minutes after the end of the 3 hour meal by intraperitoneal injection. (The dose concentrated is a mmoles/kg/5-10 ml H2 O or 1% gum arabic depending on the solubility of the compound.) Rats are sacrificed by decapitation after a 30 minute pulse consisting of: 1mCi^3 H2 O,5 μCi[U-^14 C]alanine, 12.3 mg. alanine, and 30.6 mg α-ketoglutaric acid in […], given at the end of the 3 hour meal by i.v. injection into the tail vein. Blood was collected, allowed to clot and the serum analyzed for triglyceride and cholesterol levels. The livers are quickly excised, saponified, and acidified (only for determining the rate of lipogenesis) and extracted with hexane. At this stage the lipids are either counted (to determine the rate of lipogenesis) or precipitated with digitonin, washed, and counted (to determine the rate of cholesterogenesis). The conversion of ^3 H2 O and [^14 C]alanine into fatty acids or sterols is determined in a PDS/3, Mark II liquid scintillation counting system. Data are expressed as moles ^3 H2 O nmoles converted into fatty acids and cholesterol per g liver per 30 minutes.
(§4) ^a Charles River CD rats (6 rats per group at 160-180 g) were fasted
(§5) 48 hours, then mealfed a high carbohydrate diet for 18 days. On the
(§6) experimental day, rats were given an oral dose (1% gum arabic or
(§7) 3amino-4-carbomethoxy-2-n-propylthiophene hydrochloride in 1% gum arabic
(§8) at the above concentrations) 30 minutes before the beginning of the meal.
(§9) At the end of the 3 hour meal, the rats were given an i.v. pulse,
sacrificed 30 minutes later, and rates of synthesis were determined.
(§10) ^b Data are expressed as μmoles ^3 H2 O and nmoles
[^14 C]alanine converted into cholesterol per g liver per 30 minutes.

[3] = test system: Fatty Acid Synthesis (liver); experiment: In vivo lipogenesis in rat liver after intraperitoneal administration (Table II); details: i.p. 0.1 mmoles/kg; control 614 ± 66
Method: as §1, with “The livers are quickly excised, saponified, and acidified (only for determining the rate of lipogenesis) and extracted with hexane.” left out
as §2
(§11) ^b Data are expressed as μmoles ^3 H2 O and moles[ ^1 […]

[4] = test system: Cholesterol Synthesis (liver); experiment: In vivo cholesterogenesis in rat liver after intraperitoneal administration (Table II); details: i.p. 0.1 mmoles/kg
Method: as §1, with “The livers are quickly excised, saponified, and acidified (only for determining the rate of lipogenesis) and extracted with hexane.” left out
as §2, §11

[5] = test system: Fatty Acid Synthesis (liver); experiment: In vivo fatty acid synthesis in rat liver after oral administration (Table IV); details: oral 1.2 mmoles/kg
Method: as §3, §4, §5, §6, §7, §8, §9
sacrificed 30 minutes later and rates of synthesis were determined.
as §10
[^14 C]alanine converted into fatty acids per g liver per 30 minutes.

[6] = Total body fat and protein in ad libitum high fat fed rats, 63 day study (Table IX); assay type: in vivo, rat; details: dietary admixture 71 then (day 33) 130 mg/kg/day, 63 days
Method: (§12) As previously mentioned, the compounds disclosed and claimed herein are also useful as antiobesity agents. […] Groups of 10 rats were fed ad libitum a 10% corn oil, 60% glucose diet in accordance with the methodology described in Sullivan et al., Am. J. Clin. Nutr. 30:767-776 (1977). The effect of 4-amino-5-ethyl-3-thiophene carboxylic acid methyl ester hydrochloride on body weight, total body fat and protein was determined. The results are tabulated in Example 35 (Table VIII and Table IX) of the specification.
(§13) The antiobesity activity of 4-amino-5-ethyl-3-thiophene carboxylic acid methyl ester hydrochloride (Compound A) was evaluated in a long-term chronic experiment in which body weight gain and food consumption were monitored at least biweekly. The study was conducted on Charles River rats receiving 10% corn oil: 60% glucose (high fat) diets. For the first 32 days of this study a dose of approximately 71 mg./kg. body weight/day was given. From day 33 until the end of the study the average daily dose was increased to 130 mg./kg. body weight/day. The study included a group of rats pair-fed to the Compound A treated rats, i.e., the pair-fed animals received the same amount of food as their Compound A paired rat consumed on the previous day. Pair feeding was terminated several days after food intake in the Compound A treated groups returned to control levels. Pair-feeding to the Compound A treated group was terminated on day 22. Upon termination of the study, carcass lipid and protein levels, serum lipids and hepatic rates of fatty acid synthesis in vivo were determined. A summary of the initial and final body weights, cumulative weight gained and food consumed and average daily food intake is presented in Table VIII.
(§14) ^a Female Charles River rats (10 rats per group) were fed ad libitum
(§15) the 10% corn oil:60% glucose diet. On day 1 of the experiment rats were
(§16) divided into three groups: (1) control, (2) Compound A as a dietary
admixture (71 mg/kg body weight/day), and (3) pairfed to the Compound A
treated group. Pairfeeding was terminated on day 22. On day 33 the
concentration of Compound A was increased to 130 mg/kg/day.

[7] = Body weight and food intake in ad libitum high fat fed rats, 63 day study (Table VIII); assay type: in vivo, rat
Method: as §12, §13, §14, §15, §16
admixture (71 mg/kg body weight/day, and (3) pairfed to the Compound A
treated group. Pairfeeding was terminated on day 23. On day 33 the
concentraton of Compound A was increased to 130 mg/kg/day.

[8] = Serum triglycerides, cholesterol, insulin and glucose after oral administration at increasing concentrations (Table VII); assay type: in vivo, rat; details: oral gavage, 0.4 to 1.2 mmoles/kg over 10 days
Method: as §3
(§17) ^a Charles River female rats were fasted 48 hr, then mealfed (8 to 11
(§18) a.m.) a high carbohydrate diet for 14 days. Rats weighing 180 to 210 g (1
(§19) in each group) were dosed by gastric gavage, with either 1% gum arabic or
(§20) Compound A in 1% gum arabic. The initial dose was 0.4 mmoles (89 mg) per
(§21) kg body weight and was increased by 0.2 mmoles (44 mg) per kg body weight
(§22) every other day. The experimental period consisted of 10 days, and the
(§23) doses given were 0.4, 0.6, 0.8, 1.0 and 1.2 mmoles per kg. All rats were
fed 1/2 hr after the oral dose. On the 10th day, following the 3 hr meal
(§24) each rat received an intravenous injection (consisting of 5 μCi
(§25) [U^14 C]alanine, 1 mCi ^3 H2 O, 12.3 mg alanine and 30.6 mg
ketoglutaric acid) and was killed 30 min later. Blood was collected,
allowed to clot and serum analyzed.
Each value is the mean ±SE

[9] = test system: Hepatic Cholesterol Synthesis; experiment: Hepatic cholesterol synthesis after oral administration at increasing concentrations (Table VI); assay type: in vivo, rat; details: oral gavage, 0.4 to 1.2 mmoles/kg over 10 days
Method: as §3, §17, §18, §19, §20, §21, §22, §23
(§26) fed 1/2 hr after the oral dose. On the 10th day, following the 3 hr meal,
as §24, §25
(§27) ketoglutaric acid) and was killed 30 min later. Livers were quickly
(§28) excised, saponified, and extracted for fatty acids or cholesterol. Data
(§29) are expressed as μmoles ^3 H2 O or nmoles [^14 C]alanine
(§30) converted into fatty acids or cholesterol per gram liver per 30 min.
(§31) Each value is the mean ± SE.

[10] = test system: Hepatic Fatty Acid Synthesis; experiment: Hepatic fatty acid synthesis after oral administration at increasing concentrations (Table VI); assay type: in vivo, rat; details: oral gavage, 0.4 to 1.2 mmoles/kg over 10 days
Method: as §3, §17, §18, §19, §20, §21, §22, §23, §26, §24, §25, §27, §28, §29, §30, §31

[11] = oral 0.4 nmoles/kg (so in the source)

CCCc1scc(C(=O)OC)c1N.Cl [3-amino-4-carbomethoxy-2-n-propylthiophene hydrochloride]
Triglycerides (serum) ([1]; control 67 ± 4): 51 ± 3 mg %
Cholesterol (serum) ([1]; control 116 ± 7): 105 ± 11 mg %
Cholesterol Synthesis, 3H2O, % of Control [2, 11]: 71 % of Control
Cholesterol Synthesis, [14C]alanine, % of Control [2, 11]: 53 % of Control
Cholesterol Synthesis, 3H2O converted [2, 11]: 0.96 ± 0.05 μmoles/g/30 min.
Cholesterol Synthesis, [14C]alanine converted [2, 11]: 17.4 ± 0.9 nmoles/g/30 min.
Cholesterol Synthesis, 3H2O, % of Control ([2]; oral 1.2 mmoles/kg): 65 % of Control
Cholesterol Synthesis, [14C]alanine, % of Control ([2]; oral 1.2 mmoles/kg): 46 % of Control
Cholesterol Synthesis, 3H2O converted ([2]; oral 1.2 mmoles/kg): 0.88 ± 0.16 μmoles/g/30 min.
Cholesterol Synthesis, [14C]alanine converted ([2]; oral 1.2 mmoles/kg): 15.2 ± 3.2 nmoles/g/30 min.
Fatty Acid Synthesis, [14C]alanine converted [3]: 251 ± 36 nmoles/g/30 min.
Cholesterol Synthesis, 3H2O converted ([4]; control 1.36 ± 0.07): 0.85 ± 0.06 μmoles/g/30 min.
Cholesterol Synthesis, [14C]alanine converted ([4]; control 35.7 ± 3.2): 17.6 ± 1.9 nmoles/g/30 min
Fatty Acid Synthesis, 3H2O, % of Control [5]: 36 % of Control
Fatty Acid Synthesis, [14C]alanine, % of Control [5]: 34 % of Control
Fatty Acid Synthesis, 3H2O converted ([5]; control 19.6 ± 2.4): 7.1 ± 1.7 μmoles/g/30 min.
Fatty Acid Synthesis, [14C]alanine converted ([5]; control 473 ± 76): 162 ± 60 nmoles/g/30 min.

CCc1scc(C(=O)OC)c1N.Cl [Compound A, 4-amino-5-ethyl-3-thiophenecarboxylic acid methyl ester hydrochloride]
Protein, % of body weight ([6]; control 19.1 ± 1.6): 20.7 ± 1.4 % of body weight
Lipid, % of body weight ([6]; control 23.5 ± 2.2): 16.5 ± 1.7 % of body weight
Protein, total ([6]; control 54.1 ± 4.8): 52.7 ± 0.6 g
Lipid, total ([6]; control 66.8 ± 7.1): 42.1 ± 4.5 g
IBW (initial body weight) ([7]; baseline of Compound A group, control 215 ± 3): 214 ± 3 g
FI (food intake) ([7]; dietary admixture 71 then (day 33) 130 mg/kg/day, 63 days, control 17.7 ± 0.7, pair-fed 16.0 ± 0.4): 16.3 ± 0.4 g/day
CBWG (cumulative body weight gain) ([7]; dietary admixture 71 then (day 33) 130 mg/kg/day, 63 days, control 68 ± 6, pair-fed 66 ± 6): 41 ± 4 g
FBW (final body weight) ([7]; dietary admixture 71 then (day 33) 130 mg/kg/day, 63 days, control 282 ± 8, pair-fed 281 ± 6): 256 ± 4 g
CFC (cumulative food consumption) ([7]; dietary admixture 71 then (day 33) 130 mg/kg/day, 63 days, control 1115.1 ± 44.1, pair-fed 1008.0 ± 25.2): 1026.9 ± 25.2 g
Cholesterol (value in parentheses, relative to control) [8]: 81%
Glucose (value in parentheses, relative to control) [8]: 97%
Insulin (value in parentheses, relative to control) [8]: 49%
Triglycerides (value in parentheses, relative to control) [8]: 62%
Insulin (serum) ([8]; mean ± SE, control 3.85 ± 0.74): 1.91 ± 0.24 ng/mL
Triglycerides (serum) ([8]; mean ± SE, control 51 ± 3): 31 ± 3 mg %
Cholesterol (serum) ([8]; mean ± SE, control 97 ± 5): 79 ± 6 mg %
Glucose (serum) ([8]; mean ± SE, control 165 ± 7): 160 ± 5 mg %
Cholesterol Synthesis, 3H2O (value in parentheses, relative to control) [9]: 120%
Cholesterol Synthesis, [14C]alanine (value in parentheses, relative to control) [9]: 114%
Cholesterol Synthesis, 3H2O ([9]; mean ± SE, control 0.50 ± 0.06): 0.60 ± 0.06 μmoles/g/30
Cholesterol Synthesis, [14C]alanine ([9]; mean ± SE, control 13.9 ± 1.5): 15.8 ± 1.6 nmol/g/30 min
Fatty Acid Synthesis, 3H2O (value in parentheses, relative to control) [10]: 49%
Fatty Acid Synthesis, [14C]alanine (value in parentheses, relative to control) [10]: 42%
Fatty Acid Synthesis, 3H2O ([10]; mean ± SE, control 36.7 ± 2.7): 18.0 ± 2.3 μmoles/g/30 min
Fatty Acid Synthesis, [14C]alanine ([10]; mean ± SE, control 685 ± 59): 290 ± 49 nmoles/g/30 min

Reference: patent US4428963A, “Novel thiophene derivatives” (Hoffmann-La Roche Inc., priority 1983, dated 1984)
